According to patent US7001608B2, “Artificial synapse chip interface for electronic prosthetic retina” (The Board of Trustees of the Lealand Stanford Junior …, priority 2001, dated 2006):

Assay: Gramicidin D conductance change in lipid bilayer across silicon nitride aperture
Assay type: biochemical
Conditions: 5 to 20 μl of 2 mg/ml gD in ethanol to each bath; within minutes; capacitance remained constant; ethanol alone no effect
Text: Lipid bilayers were formed by the method of Montal and Mueller (1972). In practicing the Langmuir-Blodgett technique, one raises two lipid monolayers across an aperture, allowing the lipids to align their hydrophobic tail portions across the aperture so as to form a lipid bilayer. Because of the hydrophobic nature of the lipid tails, in order to form stable bilayers the surface of a BSP must also be hydrophobic. If the substrate is hydrophobic, the lipids can smoothly transition from coating the substrate to spanning the aperture. To reverse the wetting properties of the naturally hydrophilic silicon nitride, the silicon nitride was coated with an alkylsilane (octyltrichlorosilane). Application of this coating was quite simple and very effective. It was not found to be possible to form a bilayer with untreated devices. Use of longer carbon chain silanes or alternative materials to make the surface even more hydrophobic would further increase bilayer stability.
For smaller apertures, it was more difficult to observe the capacitance change over the background. In this case, membrane-bound proteins that affect the electrical properties of the bilayer, such as carriers and ion channels, offered the best proof of the formation of a bilayer. The ion channel peptide Gramicidin D (gD), was chosen for ease of use and large conductance change. […]

## Gramicidin D [gD]
  conductance of the bilayer: dramatically increased
